Values belong to the molecule of their own block, whether it stands above or below them.
Assays:
[1] = Evaluation of osmotic pressure of draw solutions (Osmomat 010, freezing point lowering method); format: physicochemical
Method: Osmotic pressure of each draw solution is measured by using osmotic pressure measurement equipment (Osmomat 010) in accordance with the freezing point lowering method.

[2] = Osmotic flow analysis: water flux and reverse solute flux in U-shaped semi-dynamic forward osmosis apparatus; conditions: feed distilled water
Method: The osmotic flow is evaluated with a homemade, U-shaped semi-dynamic forward osmosis apparatus. To test performance of the draw solute, a semi-permeable commercialized FO membrane (cellulose trifluoroacetate) (Hydration Technology Innovation (HTI), USA) is placed in the middle of the apparatus. Each side is filled with distilled water as a feed solution and a draw solution with predetermined or given concentrations, respectively. The selective layer is faced toward the feed solutions and osmotic water flux from feed to draw solutions is calculated from the volumetric change of each solution during one hour after 30 min. The reversed solute flux from draw to feed solution through the membrane is measured by conductivity, inductively coupled plasma optical emission spectroscopy (ICP-OES), and total organic carbon (TOC).

[3] = draw solution osmotic pressure 15.0
[4] = draw solution osmotic pressure 29.0
[5] = draw solution osmotic pressure 43.0
[6] = draw solution osmotic pressure 8.3
[7] = draw solution osmotic pressure 23.5
[8] = draw solution osmotic pressure 57.6

SMILES: NCCCCCCNCCCCCCN.O=C(O)CC(O)(CC(=O)O)C(=O)[O-].O=C([O-])CC(O)(CC(=O)O)C(=O)[O-].O=C([O-])CC(O)(CC(=O)[O-])C(=O)[O-].[Na+].[Na+].[Na+].[Na+].[Na+].[Na+] [Example 4]
Osmotic pressure ([1]; draw solution concentration 46.2 mg/ml): 8.6 atm
Osmotic pressure ([1]; draw solution concentration 92.3 mg/ml): 17.2 atm
Osmotic pressure ([1]; draw solution concentration 184.6 mg/ml): 38.2 atm
Osmotic pressure ([1]; draw solution concentration 249.2 mg/ml): 59.3 atm

SMILES: [Cl-].[Cl-].[Mg+2] [Comp. Example 1, MgCl2]
Osmotic pressure ([1]; draw solution concentration 19.0 mg/ml): 11.9 atm
Osmotic pressure ([1]; draw solution concentration 38.1 mg/ml): 25.2 atm
Osmotic pressure ([1]; draw solution concentration 76.2 mg/ml): 60.6 atm
Reverse solute flux [2, 3]: 3.3 GMH
Water flux [2, 3]: 5.6 LMH
Reverse solute flux [2, 4]: 4.8 GMH
Water flux [2, 4]: 8.2 LMH
Reverse solute flux [2, 5]: 5.6 GMH
Water flux [2, 5]: 9.7 LMH

Osmotic pressure ([1]; draw solution concentration 60.2 mg/ml): 11.7 atm
Osmotic pressure ([1]; draw solution concentration 120.4 mg/ml): 25.8 atm
Osmotic pressure ([1]; draw solution concentration 240.7 mg/ml): 62.4 atm
Reverse solute flux [2, 3]: 0.9 GMH
Water flux [2, 3]: 4.2 LMH
Reverse solute flux [2, 4]: 1.2 GMH
Water flux [2, 4]: 5.5 LMH
SMILES: O=S(=O)([O-])[O-].[Mg+2] [Comp. Example 2, MgSO4]

SMILES: NCCN.O=C(O)CC(O)(CC(=O)O)C(=O)[O-].O=C([O-])CC(O)(CC(=O)[O-])C(=O)[O-].[Na+].[Na+].[Na+].[Na+] [Example 1]
Osmotic pressure ([1]; draw solution concentration 29.6 mg/ml): 5.8 atm
Osmotic pressure ([1]; draw solution concentration 118.4 mg/ml): 21.8 atm
Osmotic pressure ([1]; draw solution concentration 177.6 mg/ml): 33.8 atm
Osmotic pressure ([1]; draw solution concentration 236.8 mg/ml): 50.4 atm
Osmotic pressure ([1]; draw solution concentration 266.4 mg/ml): 61.1 atm
Reverse solute flux [2, 6]: 0 GMH
Water flux [2, 6]: 4.06 LMH
Reverse solute flux [2, 7]: 0.02 GMH
Water flux [2, 7]: 8.25 LMH
Reverse solute flux [2, 8]: 0.41 GMH
Water flux [2, 8]: 11.58 LMH

SMILES: NCCNCCNCCNCCN.O=C(O)CC(O)(CC(=O)O)C(=O)[O-].O=C(O)CC(O)(CC(=O)O)C(=O)[O-].O=C([O-])CC(O)(CC(=O)O)C(=O)[O-].O=C([O-])CC(O)(CC(=O)[O-])C(=O)[O-].O=C([O-])CC(O)(CC(=O)[O-])C(=O)[O-].[Na+].[Na+].[Na+].[Na+].[Na+].[Na+].[Na+].[Na+].[Na+].[Na+] [Example 2]
Osmotic pressure ([1]; draw solution concentration 34.2 mg/ml): 6.3 atm
Osmotic pressure ([1]; draw solution concentration 68.5 mg/ml): 11.8 atm
Osmotic pressure ([1]; draw solution concentration 102.7 mg/ml): 17.5 atm
Osmotic pressure ([1]; draw solution concentration 205.43 mg/ml): 37.5 atm
Osmotic pressure ([1]; draw solution concentration 301.2 mg/ml): 67.1 atm

Osmotic pressure ([1]; draw solution concentration 46.3 mg/ml): 10.2 atm
Osmotic pressure ([1]; draw solution concentration 92.6 mg/ml): 18.2 atm
Osmotic pressure ([1]; draw solution concentration 185.2 mg/ml): 20.4 atm
Osmotic pressure ([1]; draw solution concentration 277.8 mg/ml): 26.8 atm
Osmotic pressure ([1]; draw solution concentration 370.4 mg/ml): 37.6 atm
Osmotic pressure ([1]; draw solution concentration 463.0 mg/ml): 62.8 atm
SMILES: NCCNCCN.O=S(=O)(O)O.O=S(=O)([O-])O.O=S(=O)([O-])[O-].[Na+].[Na+].[Na+] [Example 7]
